Experimental data: patent publication EP1003508B1, “ANTIMUTAGENIC AGENTS” (The GRASSETTI Family Trust, priority 1997, dated 1999)
Where two headings read alike, the source gives them in different places.

Legend:
[1] = target: T1, poly(ADP-ribose) polymerase (ADPRP) (Sus scrofa, UniProt I3LDH3); assay: Inhibition of ADPRP enzyme activity; assay type: biochemical, pig
T1 construct: ADPRP was prepared from pig thymus using the method of Khan and Shall; from tissue; host or cells: pig thymus
Procedure: ADPRP was prepared from pig thymus using the method of Khan and Shall (Biochem. Soc. Transactions 4:778 (1976)) with various modifications. Enzyme activity was approximately linear up to 15-20 minutes with NAD substrate concentration of 25 µM. Typical maximum enzyme activity was around 0.003 nmol product formed/minute in the assay (i.e. approximately 0.1% of substrate utilized). KM was approximately 25 µM.
Using a standard assay mix containing 2mM dithiothreitol (DTT) and […] crude enzyme/ml incubation, three experiments were performed with 6,6'-dithiodinicotinic acid added at concentrations varying from 5 µg/ml to 600 µg/ml (i.e. 1/60th molar equivalent of DTT to 2 molar equivalents). […] INHIBITION % OF CONTROLS
These are values for individual incubations which were stopped at either 7.5, 15, or 20 minutes.

[2] = Observed toxicity / tolerability; settings: can be taken in doses of at least approximately 0.1 gram per day for indefinite periods
Text: It can be taken in doses of at least approximately 0.1 gram per day for indefinite periods. This fills the requirements for a non-toxic, low-cost chemopreventive agent, which could be administered orally.

[3] = test system: Salmonella Typhimurium bacteria T-100; assay: microbe, parasite or virus in culture; assay type: cell-based; settings: for Number of Colonies Per Plate With Inhibitor: inhibitor 0.3 mg/plate added one hour before carcinogen, average of 3; for inhibition at 0.3 mg/plate: Salmonella enterica, TYPHIMURIUM
metastases = settings: mice; Grassetti 1970, Nature 228:282; cited from earlier work
[4] = 2mM DTT, individual incubation, read-out: Percent Inhibition at: 7.5 min.
[5] = 2mM DTT, individual incubation, read-out: Percent Inhibition at: 15 min.

T1 sequence (I3LDH3 1-1017): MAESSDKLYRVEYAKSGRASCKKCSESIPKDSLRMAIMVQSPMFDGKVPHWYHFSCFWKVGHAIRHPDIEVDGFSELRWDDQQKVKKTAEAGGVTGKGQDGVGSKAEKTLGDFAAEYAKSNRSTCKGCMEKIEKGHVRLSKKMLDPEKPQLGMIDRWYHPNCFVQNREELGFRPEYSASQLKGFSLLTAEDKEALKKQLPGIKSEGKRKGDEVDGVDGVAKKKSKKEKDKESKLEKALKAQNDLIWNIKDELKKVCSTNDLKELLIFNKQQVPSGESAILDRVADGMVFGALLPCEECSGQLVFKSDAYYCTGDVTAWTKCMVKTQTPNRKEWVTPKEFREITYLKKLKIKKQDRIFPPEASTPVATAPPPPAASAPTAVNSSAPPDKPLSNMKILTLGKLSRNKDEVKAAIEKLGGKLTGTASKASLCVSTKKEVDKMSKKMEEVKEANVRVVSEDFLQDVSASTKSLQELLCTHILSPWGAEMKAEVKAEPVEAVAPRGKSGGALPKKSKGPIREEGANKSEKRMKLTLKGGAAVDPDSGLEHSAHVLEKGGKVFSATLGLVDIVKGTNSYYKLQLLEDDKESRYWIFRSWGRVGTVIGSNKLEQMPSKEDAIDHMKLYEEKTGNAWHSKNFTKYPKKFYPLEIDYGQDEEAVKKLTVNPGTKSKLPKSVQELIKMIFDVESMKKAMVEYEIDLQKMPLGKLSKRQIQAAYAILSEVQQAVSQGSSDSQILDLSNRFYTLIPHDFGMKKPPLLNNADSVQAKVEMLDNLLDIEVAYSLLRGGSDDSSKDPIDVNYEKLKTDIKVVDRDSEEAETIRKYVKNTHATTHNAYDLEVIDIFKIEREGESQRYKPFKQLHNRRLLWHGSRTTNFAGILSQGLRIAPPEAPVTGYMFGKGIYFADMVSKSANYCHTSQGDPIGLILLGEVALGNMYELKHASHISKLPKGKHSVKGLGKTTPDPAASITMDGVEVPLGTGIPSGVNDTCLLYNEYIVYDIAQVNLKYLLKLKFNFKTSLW

## O=C(O)c1ccc(SSc2ccc(C(=O)O)cn2)nc1 [6,6'-dithiodinicotinic acid]
[1]; [4]
  inhibition at 5 µg/mL: 0%
  inhibition at 25 µg/mL: 0%
  inhibition at 50 µg/mL: 37%
  inhibition at 100 µg/mL: 68%
[1]; [5]
  inhibition at 5 µg/mL: 14%
  inhibition at 25 µg/mL: 0%
  inhibition at 50 µg/mL: 38%
  inhibition at 100 µg/mL: 54%
[1]; 150 µg/ml, 2mM DTT, individual incubation, read-out: Percent Inhibition at: 7.5 min.
  inhibition at 150 µg/mL: 88%
[1]; 150 µg/ml, 2mM DTT, individual incubation, read-out: Percent Inhibition at: 15 min.
  inhibition at 150 µg/mL: 70%
[1]; 150 µg/ml, 2mM DTT, individual incubation, read-out: Percent Inhibition at: 20 min.
  inhibition at 150 µg/mL: 90%
[1]; 150 µg/ml, excess DTT added to incubation
  extent of conversion of substrate to bound product after addition of excess DTT: did not increase
[1]; 300 µg/ml, 2mM DTT, individual incubation, read-out: Percent Inhibition at: 20 min.
  inhibition at 300 µg/mL: 93%
[1]; 600 µg/ml, 2mM DTT, individual incubation, read-out: Percent Inhibition at: 20 min.
  inhibition at 600 µg/mL: 83%
[1]; at 50 µg/ml, 2mM DTT
  inhibition of ADPRP: Significant and specific inhibition
[1]; at 150 µg/ml and above (0.5 molar equivalents of DTT and above)
  inhibition of ADPRP: almost complete inhibition
[1]; at 5 and 25 µg/ml
  inhibition of ADPRP: No inhibition
[2]
  toxicity: not a toxic compound
[3]; 2-Aflatoxin 0 (control) µg/plate
  Number of Colonies Per Plate With Inhibitor: 104
[3]; 2-Aflatoxin 20 µg/plate
  Number of Colonies Per Plate With Inhibitor: 188
[3]; 2-Aflatoxin 50 µg/plate
  Number of Colonies Per Plate With Inhibitor: 358
[3]; 2-Aflatoxin 100 µg/plate
  Number of Colonies Per Plate With Inhibitor: 471
[3]; 2-Aminofluorene 0 (control) µg/plate
  Number of Colonies Per Plate With Inhibitor: 141
[3]; 2-Aminofluorene 5.0 µg/plate
  Number of Colonies Per Plate With Inhibitor: 705
[3]; 2-Aminofluorene 15.0 µg/plate
  Number of Colonies Per Plate With Inhibitor: 655
[3]; 2-Aminofluorene 25.0 µg/plate
  Number of Colonies Per Plate With Inhibitor: 791
[3]; Benzo-[a]-pyrene 0 (control) µg/plate
  Number of Colonies Per Plate With Inhibitor: 111
[3]; Benzo-[a]-pyrene 2.5 µg/plate
  Number of Colonies Per Plate With Inhibitor: 339
[3]; Benzo-[a]-pyrene 5.0 µg/plate
  Number of Colonies Per Plate With Inhibitor: 446
[3]; Benzo-[a]-pyrene 10.0 µg/plate
  Number of Colonies Per Plate With Inhibitor: 488
[3]; 2-Aminofluorene 5.0 µg/plate, inhibitor 0.3 mg/plate, read-out: Decrease (%)
  inhibition at 0.3 mg/plate: 10%
[3]; Benzo-[a]-pyrene 2.5 µg/plate, inhibitor 0.3 mg/plate, read-out: Decrease (%)
  inhibition at 0.3 mg/plate: 74%
[3]; Benzo-[a]-pyrene 5.0 µg/plate, inhibitor 0.3 mg/plate, read-out: Decrease (%)
  inhibition at 0.3 mg/plate: 62%
[3]; Benzo-[a]-pyrene 10.0 µg/plate, inhibitor 0.3 mg/plate, read-out: Decrease (%)
  inhibition at 0.3 mg/plate: 58%
[3]; read-out: Decrease (%), 2-Aflatoxin 0 (control) µg/plate, inhibitor 0.3 mg/plate
  inhibition at 0.3 mg/plate: 0%
[3]; read-out: Decrease (%), 2-Aflatoxin 20 µg/plate, inhibitor 0.3 mg/plate
  inhibition at 0.3 mg/plate: 63%
[3]; read-out: Decrease (%), 2-Aflatoxin 50 µg/plate, inhibitor 0.3 mg/plate
  inhibition at 0.3 mg/plate: 68%
[3]; read-out: Decrease (%), 2-Aflatoxin 100 µg/plate, inhibitor 0.3 mg/plate
  inhibition at 0.3 mg/plate: 72%
[3]; read-out: Decrease (%), 2-Aminofluorene 0 (control) µg/plate, inhibitor 0.3 mg/plate
  inhibition at 0.3 mg/plate: 0%
[3]; read-out: Decrease (%), 2-Aminofluorene 15.0 µg/plate, inhibitor 0.3 mg/plate
  inhibition at 0.3 mg/plate: 72%
[3]; read-out: Decrease (%), 2-Aminofluorene 25.0 µg/plate, inhibitor 0.3 mg/plate
  inhibition at 0.3 mg/plate: 63%
[3]; read-out: Decrease (%), Benzo-[a]-pyrene 0 (control) µg/plate, inhibitor 0.3 mg/plate
  inhibition at 0.3 mg/plate: 0%
[3]; read-out: number of mutants decreased, present in the culture prior to addition of carcinogen (benzo-[a]-pyrene, 2-aflatoxin, or 2-aminofluorene)
  inhibition at 0.3 mg/plate: ~70%
[3]; benzo-[a]-pyrene, 2-aflatoxin, and 2-aminofluorene
  mutagenic effect of carcinogenic chemicals: greatly diminished
metastases
  prevention of metastases: known to prevent metastases in mice
